Data on six compounds can be found in PubChem BioAssay (NCI).

Holding throughout (assay): growth of human tumour cells (NCI), 48 h
Experiment [1] deals with MALME-3M melanoma.
Experiment [2] concerns MDA-MB-231 breast.
Experiment [3] relates to A549 NSCLC.
Experiment [4] relates to UACC-62 melanoma.
The subject of experiment [5] is HCT-116 colon.
Experiment [6] deals with CCRF-CEM leukemia.
Experiment [7] deals with BT-549 breast.
Experiment [8] relates to RXF 393 renal.
For experiment [9], the system named is K-562 leukemia.
For experiment [10], the system named is COLO 205 colon.

Values joined by “and” are separate entries in the source; they are usually repeats but may differ in a detail not shown here. Identical values can stand only once.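 Step 1: Grow cells in 96-well plates. Step 2: Expose to compound for 48 hours at 5 concentrations. Step 3: Interpolate endpoints linearly; if unreached, use highest concentration. The concentration for 50% growth inhibition is given as GI50. TGI: concentration producing complete growth inhibition.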

For the compound `Nc1ccn([C@@H]2S[C@H](CO)[C@@H](O)[C@@H]2F)c(=O)n1`, the GI50 in [1] is 1.52 µM; in [2] it was over 100 µM; in experiment [3], 0.161 µM; in experiment [4], 0.372 µM; in experiment [5], 0.0393 µM; in [6] it was under 0.01 µM. The GI50 in experiment [7] is 1.74 µM; in experiment [8] it was 0.289 µM; in experiment [9] it was 0.23 µM; in [10] it was 0.407 µM. The TGI in experiment [1] was over 100 µM; in experiment [2], over 100 µM; in [3], over 100 µM; in [4], over 38.2 µM; in experiment [5] it was over 100 µM; in experiment [6], over 100 µM. The TGI in experiment [7] was over 100 µM; in experiment [8], over 22.4 µM; in experiment [9] it was over 100 µM; in [10], over 100 µM.

As to `COc1cc2c(cc1OC)C(SC)C(=O)N(Cc1cccc(OC)c1OC)CC2` (centres undefined), the TGI in experiment [1] is over 66.6 µM; in experiment [2] it was over 100 µM; in experiment [3], over 82.7 µM; in experiment [4], 30.2 µM; in experiment [5], over 70.2 µM; in [6], over 55.6 µM. Moreover, the TGI is 33.2 µM in experiment [7], over 48.1 µM in [8], 41.4 µM in experiment [9] and 16.9 µM in [10].

`C=CC[PH+](c1ccccc1)c1ccccc1.C=CC[PH+](c1ccccc1)c1ccccc1.[Pt+2].[S-]c1ncccn1.[S-]c1ncccn1`: the GI50 in [1] was 2.5 µM; in experiment [2], 5.68 µM; in experiment [3], 26.3 µM; in experiment [4], 8.06 µM; in experiment [5] it was 2.17 µM; in experiment [6] it was 3.17 µM. For the same compound, the GI50 in experiment [7] was 25.1 µM; in experiment [8] it was 4.67 µM; in experiment [9] it was 2.99 µM; in experiment [10], 5.24 µM. Further, the TGI in experiment [1] is 10.4 µM; in experiment [2], 52.8 µM; in experiment [3], over 100 µM; in [4] it was 24.8 µM; in experiment [5] it was 4.88 µM; in experiment [6] it was over 100 µM. Moreover, the TGI in experiment [7] is over 100 µM; in experiment [8], 18.3 µM; in [9], over 100 µM; in [10] it was 26.9 µM.

Take `CCN(CC)Cc1cc(Nc2cc(C(F)(F)F)c(C#N)c3nc4ccccc4n23)ccc1O`: the GI50 is 1.19 µM in [1]; 1.95 µM in [2]; 3.17 µM in experiment [3]; 1.22 µM in experiment [4]; 1.6 µM in experiment [5]; 2.79 µM in experiment [6]. Moreover, the GI50 in [7] was 2.36 µM; in experiment [8] it was 1.8 µM; in [9], 3.1 µM; in [10], 1.41 µM. The TGI is 5.82 µM in experiment [1]; 5.33 µM in experiment [2]; 12.5 µM in experiment [3]; 3.96 µM in [4]; 4.45 µM in [5]; over 100 µM in experiment [6]. For the same compound, the TGI in [7] is 8.75 µM; in experiment [8], 5.81 µM; in experiment [9], over 100 µM; in [10], 3.08 µM.

`CCc1ccc(C2=NN(c3ccc(S(C)(=O)=O)cc3)C(=O)CC2)cc1`: the GI50 in [1] was 3.58 µM; in experiment [2], 3.32 µM; in [3] it was 0.913 µM; in experiment [4], 0.603 µM; in experiment [5] it was 0.942 µM; in experiment [6] it was 1.23 µM. For the same compound, the GI50 in [7] is 0.513 µM; in [8], 2.05 µM; in experiment [9], 0.488 µM; in [10], 1.05 µM. Besides, the TGI was over 82.2 µM in [1]; over 60.2 µM in experiment [2]; over 100 µM in [3]; over 100 µM in experiment [4]; over 39.2 µM in [5]; over 21.6 µM in [6]. The TGI in experiment [7] is 16.3 µM; in experiment [8] it was 15.4 µM; in experiment [9], over 100 µM; in [10], 7.75 µM.

For the compound `Oc1c(I)cc(Cl)c2cccnc12`, the GI50 in experiment [1] was 3.97 µM and 16.5 µM; in experiment [2], 3.54 µM and 2.7 µM; in [3], 3.96 µM and 8.89 µM; in [4], 1.81 µM and 2.06 µM; in [5] it was 3.31 µM and 2.67 µM; in experiment [6], 2.81 µM and 1.89 µM. Further, the GI50 in [7] was 3.27 µM and 23.1 µM; in [8], 2.27 µM and 16.8 µM; in experiment [9], 3.91 µM; in experiment [10] it was 5.21 µM and 5.72 µM. Besides, the TGI in [1] was 21.6 µM and 46.5 µM; in [2], 35.2 µM and 12.8 µM; in experiment [3], over 100 µM; in experiment [4], 4.56 µM and 5.09 µM; in experiment [5], 11.1 µM and 9.05 µM; in experiment [6], 9.89 µM and 4.71 µM. In addition, the TGI in [7] is 8.99 µM and 65.3 µM; in experiment [9] it was over 100 µM; in experiment [10], 21.8 µM and 75.4 µM.
